The values that follow come from patent US20260062408A1, “PRODRUGS OF S[…]” (SYNEX HOLDINGS BV, priority 2022, published 2026).

In one data set the target is T1, 5-HT2A receptor (Mus musculus, UniProt P35363).
T1 construct: tissue Jackson Laboratories; host or cells: living male C57BL/6J mice (whole animal, brain)
Conditions: 1 mg/kg i.p., 30 min, same assay conditions; data from Halberstadt et al. 2019; cited from earlier work.

A short description of data set [1]: Psychedelic effect in volunteers experienced with ALD-52. It is filed as in vivo, humans. Conditions: human volunteers; for Substitution for ALD-52 / Emax: administered as tartrate salt; for Emax: relative to ALD-52 = 1, read-out: Maximum psychedelic effect produced (ALD-52 = 1); for Duration: duration of effect relative to ALD-52. The procedure:
Compounds of the invention were tested on volunteers who were experienced with the use of the related compound ALD-52. For each compound, a solution was prepared by dissolving the tartrate salt in deionized water to produce a concentration either of 1 mg/ml of the tartrate salt, or calculated to be equivalent to 1 mg/ml of the free base. This was either administered directly, or was prepared into standardised dosage units by pipetting 0.1 ml of solution onto a square of perforated blotter paper, which was placed overnight in a desiccator and allowed to evaporate to dryness.

Data set [2] can be described thus: Preventative treatment of chronic cluster headache attacks in volunteers, eight weeks. In kind it is in vivo, humans. Conditions: for average self-rated severity of cluster headache attacks: baseline 8.78/10; for average cluster headache attacks per day: baseline 3.44 attacks per day. The text has this: Eighteen volunteers were recruited through cluster headache support groups in the Netherlands. Age range of volunteers was between 23 to 67 (average 45.17), 14 males and 4 females. All volunteers had previous experience using psychedelic drugs such as LSD or psilocybin to alleviate cluster headache attacks, as well as prescribed medications including verapamil, prednisone, sumatriptan, topiramate and indomethacin. Volunteers were asked to discontinue use of prescribed medications for five days preceding the commencement of the study and for the eight-week duration.
Participants were supplied standardised 3.0 mg dosage units of SYN-L-017 as the tartrate salt (equivalent to 2.58 mg of SYN-L-017 freebase), measured into capsules for oral administration. These were tested as a preventative for chronic cluster headache attacks. One 3 mg capsule was administered intermittently in a pattern of one day on, two days off for a period of eight weeks (using the protocol described in Karst et al. (Karst M, et al. The non-hallucinogen 2-bromo-lysergic acid diethylamide as preventative treatment for cluster headache: An open, non-randomized case series. Cephalalgia 2010; 30(9):1140-1144. DOI: 10.1177/0333102410363490)) and the volunteers were asked to keep a diary to track the frequency and self-rated severity of cluster headache attacks on a scale of 1-10.

T1 sequence (P35363 whole entry): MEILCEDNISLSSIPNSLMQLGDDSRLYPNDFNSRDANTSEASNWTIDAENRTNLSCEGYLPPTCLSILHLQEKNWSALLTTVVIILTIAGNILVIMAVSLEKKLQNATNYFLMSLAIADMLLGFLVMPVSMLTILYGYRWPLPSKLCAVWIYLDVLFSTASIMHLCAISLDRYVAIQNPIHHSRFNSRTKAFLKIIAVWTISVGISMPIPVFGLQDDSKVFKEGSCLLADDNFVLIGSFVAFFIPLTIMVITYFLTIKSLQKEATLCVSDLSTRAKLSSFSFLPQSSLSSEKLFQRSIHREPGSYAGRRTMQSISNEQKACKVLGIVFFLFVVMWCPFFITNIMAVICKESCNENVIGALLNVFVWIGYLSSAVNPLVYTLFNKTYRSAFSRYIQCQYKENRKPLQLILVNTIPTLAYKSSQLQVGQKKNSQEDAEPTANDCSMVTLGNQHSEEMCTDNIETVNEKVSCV

For the compound `CCN(CC)C(=O)[C@@H]1C=C2c3cccc4c3c(cn4C(C)=O)C[C@H]2N(C)C1` [ALD-52, 1-acetyl-d-lysergic acid diethylamide], on 5-HT2A receptor, the “average HTR count” value is listed as 16.6.

Regarding `CCCCCCCCCCCC(=O)n1cc2c3c(cccc31)C1=C[C@@H](C(=O)N(CC)CC)CN(C)[C@@H]1C2` [SYN-L-004, 1-dodecanoyl-lysergic acid diethylamide], in data set [1], the “Substitution for ALD-52” value is reported as “Partial”, the Emax was found to be 25% and the Duration result is recorded as “Slightly longer”.

As for `CCN(CC)C(=O)[C@@H]1C=C2c3cccc4c3c(cn4C(=O)c3ccccc3C)C[C@H]2N(C)C1` [SYN-L-008, 1-(o-toluoyl)-lysergic acid diethylamide], in data set [1], the “Substitution for ALD-52” value is recorded as “Partial” and the Emax was 25%.

As to `CCN(CC)C(=O)[C@@H]1C=C2c3cccc4c3c(cn4S(=O)(=O)C3CC3)C[C@H]2N(C)C1` [SYN-L-014, 1-cyclopropanesulfonyl-lysergic acid diethylamide], in data set [1], the “Substitution for ALD-52” value is reported as “No substitution” and the Emax was 0%.

As for `CCC(=O)n1c(Br)c2c3c(cccc31)C1=C[C@@H](C(=O)N(CC)CC)CN(C)[C@@H]1C2` [SYN-L-017, 1-propionyl-2-bromo-lysergic acid diethylamide], in data set [2] (after four weeks, 3 mg tartrate capsule oral, one day on, two days off), the “average self-rated severity of cluster headache attacks” value is 4.46 /10. The “average cluster headache attacks per day” value in data set [2] (after four weeks) was 2.13 attacks per day. Moreover, in data set [2] (eight-week study), the “side effects consistent with psychedelic effects” value is “No side effects consistent with psychedelic effects were reported”; the “volunteers reporting no side effects of any significance” value is on record as 75%; the “volunteers reporting side effects including dizziness, nausea, fatigue, difficulty concentrating and insomnia” value is listed as 25%; the “volunteers who thought the drug more effective than their normally used prescribed medication” value is reported as 83.33%. Moreover, the “perceived severity of side effects” value in data set [2] (eight-week study, none rated moderate or severe) is “mild”. Also, in data set [2] (end of the eight weeks), the “average cluster headache attacks per day” value worked out at 1.78 attacks per day and the “average self-rated severity of cluster headache attacks” value is on record as 3.72 /10. Further, the “volunteers reporting improvement of cluster headache symptoms” value in data set [2] (overall, eight-week study) stood at 91.67%. In data set [1], the “Substitution for ALD-52” value is recorded as “No substitution” and the Emax is 0%.

As to `CCN(CC)C(=O)[C@@H]1C=C2c3cccc4c3c(cn4C(=O)C(C)(C)C)C[C@H]2N(C)C1` [SYN-L-024, 1-pivaloyl-lysergic acid diethylamide], in data set [1], the “Substitution for ALD-52” value is reported as “Partial”, the Emax came out at 25% and the Duration entry is reported as “Shorter duration”.

With `CCCCCCCCCCCCCCCCCC(=O)n1cc2c3c(cccc31)C1=C[C@@H](C(=O)N(CC)CC)CN(C)[C@@H]1C2` [SYN-L-042, 1-stearoyl-lyserqic acid diethylamide], in data set [1], the “Substitution for ALD-52” value is on record as “Partial” and the Emax stood at 25%.

Consider `CCCCCCCC/C=C\CCCCCCCC(=O)n1cc2c3c(cccc31)C1=C[C@@H](C(=O)N(CC)CC)CN(C)[C@@H]1C2` [SYN-L-043, 1-oleoyl-lyserqic acid diethylamide], for which, in data set [1], the “Substitution for ALD-52” value is on record as “Partial” and the Emax is 25%.

On to `C=CCN1C[C@H](C(=O)N(C)C(C)C)C=C2c3cccc4c3c(cn4C(=O)CC)C[C@H]21` [SYN-L-073, 1-propionyl-6-allyl-6-nor-lysergic acid methylisopropylamide], for which, in data set [1], the “Substitution for ALD-52” value is “Partial” and the Emax came to 50%.

Take `CC(=O)n1cc2c3c(cccc31)C1=C[C@@H](C(=O)N3CCOCC3)CN(C)[C@@H]1C2` [SYN-L-196, 1-acetyl-lysergic acid morpholide]: in data set [1], the “Substitution for ALD-52” value is on record as “Partial” and the Emax was 50%.

Take `CCC(=O)n1cc2c3c(cccc31)C1=C[C@@H](C(=O)N(CC)C3CC3)CN(C)[C@@H]1C2` [SYN-L-197, 1-propionyl-lyserqic acid ethylcyclopropylamide]: in data set [1], the “Substitution for ALD-52” value is recorded as “Partial” and the Emax turned out to be 50%.

`C=C(C)CN1C[C@H](C(=O)N(CC)CC)C=C2c3cccc4c3c(cn4C(=O)CC)C[C@H]21` [SYN-L-203, 1-propionyl-6-methallyl-6-nor-lysergic acid diethylamide]: in data set [1], the “Substitution for ALD-52” value is reported as “Partial” and the Emax is 25%.
